Columns and labels:
Type in all cases: in vivo
[1] = system: Italian ryegrass (Lolium multiflorum); assay: Test A preemergence, visual injury rating
Summary of the method: (§1)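 Visual 0–100 rating (100 = complete control) taken about 10 d post-treatment relative to untreated checks. Preemergence: directed soil spray on sown loam/sand pots. Postemergence: seedlings 2–10 cm, 1–2 leaf. Non-phytotoxic solvent formulation with surfactant.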

[2] = system: barnyardgrass (Echinochloa crus-galli); assay: Test A preemergence, visual injury rating
Summary of the method: as §1

[3] = system: giant foxtail (Setaria faberii); assay: Test A preemergence, visual injury rating
Summary of the method: as §1

kochia (Kochia scoparia) [4] = assay: Test A preemergence, visual injury rating
Summary of the method: as §1

[5] = system: pigweed (Amaranthus retroflexus); assay: Test A preemergence, visual injury rating
Summary of the method: as §1

[6] = system: ragweed (common ragweed, Ambrosia elatior); assay: Test A preemergence, visual injury rating
Summary of the method: as §1

[7] = system: Italian ryegrass (Lolium multiflorum); assay: Test A postemergence, visual injury rating
Summary of the method: as §1

[8] = system: barnyardgrass (Echinochloa crus-galli); assay: Test A postemergence, visual injury rating
Summary of the method: as §1

[9] = system: blackgrass (Alopecurus myosuroides); assay: Test A postemergence, visual injury rating
Summary of the method: as §1

corn (Zea mays) = assay: Test A postemergence, visual injury rating
Summary of the method: as §1

[10] = system: galium (catchweed bedstraw, Galium aparine); assay: Test A postemergence, visual injury rating
Summary of the method: as §1

[11] = system: giant foxtail (Setaria faberii); assay: Test A postemergence, visual injury rating
Summary of the method: as §1

kochia (Kochia scoparia) [12] = assay: Test A postemergence, visual injury rating
Summary of the method: as §1

[13] = system: pigweed (Amaranthus retroflexus); assay: Test A postemergence, visual injury rating
Summary of the method: as §1

[14] = system: ragweed (common ragweed, Ambrosia elatior); assay: Test A postemergence, visual injury rating
Summary of the method: as §1

[15] = system: wheat (Triticum aestivum); assay: Test A postemergence, visual injury rating
Summary of the method: as §1

[16] = system: barnyardgrass (Echinochloa crus-galli); assay: Test B flooded paddy test, plant response rating; details: 250 g ai/ha; Flood; scale of 0 to 100 where 0 is no effect and 100 is complete control; 13 to 15 days
Summary of the method: (§2)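 Flooded 3 cm over soil; compound into paddy water; depth kept constant. Greenhouse 13–15 d.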

[17] = system: ducksalad (Heteranthera limosa); assay: Test B flooded paddy test, plant response rating; details: 250 g ai/ha; Flood; scale of 0 to 100 where 0 is no effect and 100 is complete control; 13 to 15 days
Summary of the method: as §2

rice (Oryza sativa) [18] = assay: Test B flooded paddy test, plant response rating; details: 250 g ai/ha; Flood; scale of 0 to 100 where 0 is no effect and 100 is complete control; 13 to 15 days
Summary of the method: as §2

[19] = system: sedge, umbrella (small-flower umbrella sedge, Cyperus difformis); assay: Test B flooded paddy test, plant response rating; details: 250 g ai/ha; Flood; scale of 0 to 100 where 0 is no effect and 100 is complete control; 13 to 15 days
Summary of the method: as §2

[20] = system: barnyardgrass (Echinochloa crus-galli); assay: Test C flooded paddy test, plant response rating; details: flood, scale 0 to 100
Description: (§3) At the same time, plants selected from these crop and weed species and also chickweed (common chickweed, Stellaria media), buckwheat, wild (wild buckwheat, Polygonum convolvulus), wild mustard (Sinapis arvensis), field poppy (Papaver rhoeas), field violet (Viola arvensis), geranium, cutleaf (cutleaf geranium, Geranium dissectum), Canada thistle (Cirsium arvense), and speedwell (bird's-eye speedwell, Veronica persica), were planted in pots containing Sunshine Redi-Earth® planting medium comprising spaghnum peat moss, vermiculite, starter nutrients and dolomitic limestone and treated with postemergence applications of test chemicals formulated in the same manner. Plants ranged in height from 2 to 18 cm (1- to 4-leaf stage) for postemergence treatments. Treated plants and controls were maintained in a greenhouse for 13 to 15 d, after which time all species were compared to controls and visually evaluated. Plant response ratings, summarized in Table C, are based on a scale of 0 to 100 where 0 is no effect and 100 is complete control. A dash (-) response means no test result.
(§4) Plant species in the flooded paddy test consisted of rice (Oryza sativa), sedge, umbrella (small-flower umbrella sedge Cyperus difformis), ducksalad (Heteranthera limosa), and barnyardgrass (Echinochloa crus-galli) grown to the 2-leaf stage for testing. At time of treatment, test pots were flooded to 3 cm above the soil surface, treated by application of test compounds directly to the paddy water, and then maintained at that water depth for the duration of the test.

[21] = system: ducksalad (Heteranthera limosa); assay: Test C flooded paddy test, plant response rating; details: flood, scale 0 to 100
Description: as §3, §4

rice (Oryza sativa) [22] = assay: Test C flooded paddy test, plant response rating; details: flood, scale 0 to 100
Description: as §3, §4

[23] = system: sedge, umbrella (small-flower umbrella sedge Cyperus difformis); assay: Test C flooded paddy test, plant response rating; details: flood, scale 0 to 100
Description: as §3, §4

[24] = 31 g ai/ha, 0 to 100 scale, 0 no effect, 100 complete control
[25] = 125 g ai/ha, 0 to 100 scale (0 no effect, 100 complete control)
[26] = 31 g ai/ha, 0 to 100 scale, 0 is no effect, 100 is complete control, approximately 10 days
[27] = 125 g ai/ha, 0 is no effect, 100 is complete control
[28] = 125 g ai/ha, 0 to 100 scale, 0 is no effect, 100 is complete control, approximately 10 days
[29] = 31 g ai/ha, 0 to 100 scale (0 no effect, 100 complete control)

FC(F)(F)COCc1c(Br)cccc1Oc1ncc(Cl)cn1 [Compound 62]
80: Galium plant response rating (0 to 100 scale) [10, 27]
30: Plant response rating, Barnyardgrass [2, 24] | Plant response rating, Foxtail, Giant [3, 24] | Corn plant response rating (0 to 100 scale) (corn (Zea mays); [27]) | Galium plant response rating [10, 26]
70: Barnyardgrass plant response rating [2, 25] | Kochia plant response rating (kochia (Kochia scoparia) [4]; [25])
10: Ryegrass, Italian plant response rating [1, 25] | Rice plant response rating (rice (Oryza sativa) [22]; 125 g ai/ha)
90: Pigweed plant response rating [5, 25] | Pigweed plant response rating (0 to 100 scale) [13, 27] | Plant response rating, Sedge, Umbrella [19]
75: Ducksalad plant response rating ([21]; 125 g ai/ha)
60: Plant response rating, Pigweed [5, 24] | Kochia plant response rating (kochia (Kochia scoparia) [12]; [26]) | Sedge, Umbrella plant response rating ([23]; 62 g ai/ha)
40: Barnyardgrass plant response rating (0 to 100 scale) [8, 27] | Blackgrass plant response rating (0 to 100 scale) [9, 27] | Foxtail, Giant plant response rating (0 to 100 scale) [11, 27] | Plant response rating, Barnyardgrass [16] | Ducksalad plant response rating ([21]; 62 g ai/ha)
65: Sedge, Umbrella plant response rating ([23]; 125 g ai/ha)
100: Foxtail, Giant plant response rating [3, 25] | Kochia plant response rating (0 to 100 scale) (kochia (Kochia scoparia) [12]; [27]) | Plant response rating, Ducksalad [17]
20: Plant response rating, Kochia (kochia (Kochia scoparia) [4]; [24]) | Barnyardgrass plant response rating [8, 26] | Barnyardgrass plant response rating ([20]; 125 g ai/ha)
0: Plant response rating, Ryegrass, Italian [1, 24] | Plant response rating, Ragweed [6, 24] | Ragweed plant response rating [6, 25] | Ryegrass, Italian plant response rating [7, 26] | Ryegrass, Italian plant response rating (0 to 100 scale) [7, 27] | Blackgrass plant response rating [9, 26] | Corn plant response rating (corn (Zea mays); [26]) | Foxtail, Giant plant response rating [11, 26] | Ragweed plant response rating [14, 26] | Ragweed plant response rating (0 to 100 scale) [14, 27] | Wheat plant response rating [15, 26] | Wheat plant response rating (0 to 100 scale) [15, 27] | Plant response rating, Rice (rice (Oryza sativa) [18]) | Barnyardgrass plant response rating ([20]; 16 g ai/ha) | Barnyardgrass plant response rating ([20]; 31 g ai/ha) | Barnyardgrass plant response rating ([20]; 62 g ai/ha) | Ducksalad plant response rating ([21]; 16 g ai/ha) | Ducksalad plant response rating ([21]; 31 g ai/ha) | Rice plant response rating (rice (Oryza sativa) [22]; 16 g ai/ha) | Rice plant response rating (rice (Oryza sativa) [22]; 31 g ai/ha) | Rice plant response rating (rice (Oryza sativa) [22]; 62 g ai/ha) | Sedge, Umbrella plant response rating ([23]; 16 g ai/ha) | Sedge, Umbrella plant response rating ([23]; 31 g ai/ha)
50: Pigweed plant response rating [13, 26]

CCCSC(=O)c1c(Br)cccc1Oc1ncc(Cl)cn1 [Compound 70]
80: Plant response rating, Sedge, Umbrella [19]
20: Barnyardgrass plant response rating [2, 25] | Ryegrass, Italian plant response rating [7, 28] | Blackgrass plant response rating (0 to 100 scale) [9, 27] | Kochia plant response rating (kochia (Kochia scoparia) [12]; [26]) | Pigweed plant response rating [13, 28] | Ragweed plant response rating [14, 28]
70: Galium plant response rating (0 to 100 scale) [10, 27] | Kochia plant response rating (kochia (Kochia scoparia) [12]; [28]) | Plant response rating, Ducksalad [17]
0: Plant response rating, Ryegrass, Italian [1, 24] | Ryegrass, Italian plant response rating [1, 25] | Plant response rating, Barnyardgrass [2, 24] | Plant response rating, Foxtail, Giant [3, 24] | Plant response rating, Kochia (kochia (Kochia scoparia) [4]; [24]) | Kochia plant response rating (kochia (Kochia scoparia) [4]; [25]) | Plant response rating, Pigweed [5, 24] | Pigweed plant response rating [5, 25] | Plant response rating, Ragweed [6, 24] | Ragweed plant response rating [6, 25] | Ryegrass, Italian plant response rating [7, 26] | Barnyardgrass plant response rating [8, 26] | Blackgrass plant response rating [9, 26] | Foxtail, Giant plant response rating [11, 26] | Ragweed plant response rating [14, 26] | Wheat plant response rating [15, 26] | Wheat plant response rating [15, 28] | Plant response rating, Barnyardgrass [16] | Plant response rating, Rice (rice (Oryza sativa) [18])
10: Corn plant response rating (corn (Zea mays); [26]) | Corn plant response rating (0 to 100 scale) (corn (Zea mays); [27]) | Pigweed plant response rating [13, 26]
60: Foxtail, Giant plant response rating [3, 25]
30: Barnyardgrass plant response rating (0 to 100 scale) [8, 27] | Galium plant response rating [10, 26] | Foxtail, Giant plant response rating (0 to 100 scale) [11, 27]

N#CC(CCCCC(F)(F)F)c1ccccc1Oc1ncc(Cl)cn1 (stereo not shown) [Compound 145]
70: Foxtail, Giant plant response rating [11, 28] | Kochia plant response rating (kochia (Kochia scoparia) [12]; [29])
40: Plant response rating, Barnyardgrass [2, 24] | Plant response rating, Kochia (kochia (Kochia scoparia) [4]; [25]) | Ryegrass, Italian plant response rating [7, 28] | Blackgrass plant response rating [9, 29] | Galium plant response rating [10, 29]
0: Plant response rating, Kochia (kochia (Kochia scoparia) [4]; [24]) | Plant response rating, Ragweed [6, 24]
30: Plant response rating, Ragweed [6, 25] | Barnyardgrass plant response rating [8, 29] | Corn plant response rating (corn (Zea mays); [29]) | Wheat plant response rating [15, 28] | Plant response rating, Rice (rice (Oryza sativa) [18])
50: Plant response rating, Ryegrass, Italian [1, 25] | Corn plant response rating (corn (Zea mays); [28]) | Foxtail, Giant plant response rating [11, 29] | Plant response rating, Barnyardgrass [16]
90: Plant response rating, Foxtail, Giant [3, 24] | Kochia plant response rating (kochia (Kochia scoparia) [12]; [28]) | Pigweed plant response rating [13, 29]
20: Ragweed plant response rating [14, 28]
10: Plant response rating, Ryegrass, Italian [1, 24] | Ryegrass, Italian plant response rating [7, 29] | Ragweed plant response rating [14, 29] | Wheat plant response rating [15, 29]
60: Blackgrass plant response rating [9, 28]
80: Plant response rating, Barnyardgrass [2, 25] | Barnyardgrass plant response rating [8, 28] | Galium plant response rating [10, 28]
100: Plant response rating, Foxtail, Giant [3, 25] | Plant response rating, Pigweed [5, 24] | Plant response rating, Pigweed [5, 25] | Pigweed plant response rating [13, 28] | Plant response rating, Ducksalad [17] | Plant response rating, Sedge, Umbrella [19]

FC(F)(F)CCCCCc1c(Cl)cccc1Oc1ncc(Cl)cn1 [Compound 124]
30: Foxtail, Giant plant response rating [11, 26]
80: Plant response rating, Barnyardgrass [2, 25] | Kochia plant response rating (kochia (Kochia scoparia) [12]; [28])
100: Plant response rating, Foxtail, Giant [3, 25] | Plant response rating, Pigweed [5, 25] | Pigweed plant response rating [13, 28] | Plant response rating, Ducksalad [17] | Plant response rating, Sedge, Umbrella [19]
90: Galium plant response rating [10, 28]
10: Plant response rating, Barnyardgrass [2, 24] | Plant response rating, Kochia (kochia (Kochia scoparia) [4]; [25]) | Barnyardgrass plant response rating [8, 26] | Corn plant response rating (corn (Zea mays); [26]) | Ragweed plant response rating [14, 26] | Wheat plant response rating [15, 26] | Wheat plant response rating [15, 28]
50: Kochia plant response rating (kochia (Kochia scoparia) [12]; [26])
70: Galium plant response rating [10, 26] | Foxtail, Giant plant response rating [11, 28] | Pigweed plant response rating [13, 26]
20: Plant response rating, Ryegrass, Italian [1, 25] | Ryegrass, Italian plant response rating [7, 28] | Blackgrass plant response rating [9, 26] | Corn plant response rating (corn (Zea mays); [28]) | Ragweed plant response rating [14, 28]
40: Plant response rating, Pigweed [5, 24] | Plant response rating, Rice (rice (Oryza sativa) [18])
60: Plant response rating, Foxtail, Giant [3, 24] | Barnyardgrass plant response rating [8, 28] | Blackgrass plant response rating [9, 28]
45: Plant response rating, Barnyardgrass [16]
0: Plant response rating, Ryegrass, Italian [1, 24] | Plant response rating, Kochia (kochia (Kochia scoparia) [4]; [24]) | Plant response rating, Ragweed [6, 24] | Plant response rating, Ragweed [6, 25] | Ryegrass, Italian plant response rating [7, 26]

Reference: US11053204B2, “Pyrimidinyloxy benzene derivatives as herbicides” (FMC Corporation, priority 2015, dated 2021)
